# Measurements published in patent publication US20240353338A1 (priority 2023, published 2024).
# Assays:
# SARS-CoV-2 M^pro = SARS-CoV-2 M^pro (Severe acute respiratory syndrome coronavirus 2, UniProt P0DTD1); experiment: TRIP screening of M^pro inhibitor binding and binding strength/affinity; conditions: 1 μM vs 5 μM M^pro mixes
# streptavidin = streptavidin (Streptomyces avidinii, UniProt P22629); type: binding
# transthyretin (TTR) = biological target: T1, transthyretin (TTR) (Homo sapiens, UniProt P02766); type: binding
# T1 construct: purchased Sigma Aldrich P1742
# Chain of streptavidin (P22629 37-163): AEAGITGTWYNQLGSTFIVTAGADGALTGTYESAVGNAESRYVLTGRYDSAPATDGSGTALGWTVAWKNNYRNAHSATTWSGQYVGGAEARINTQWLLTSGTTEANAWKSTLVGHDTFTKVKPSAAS
smiles,measurement,setting,value
Nc1nnc(Sc2ncc([N+](=O)[O-])s2)s1 [Halicin],affinity for monomer M^pro versus dimer / dimer-monomer M^pro mix,SARS-CoV-2 M^pro,higher affinity for binding monomeric M^pro
O=C(O)CCCC[C@@H]1SC[C@@H]2NC(=O)N[C@@H]21 [biotin],binding of biotin to streptavidin (Trp N-H band shift 877 to 870 cm^-1),streptavidin,strong hydrogen bonding occurred
"O=[N+]([O-])c1ccc(O)c([N+](=O)[O-])c1 [DNP, 2,4 dinitrophenol]",binding between DNP and TTR over time (PC2 of 1230-1350 cm^-1 region),transthyretin (TTR),enhanced over time
